Results from PubChem BioAssay AID248 (DTP/NCI, 2004).
Values joined by “and” are separate entries in the source; they are usually repeats but may differ in a detail not shown here. Identical values can stand only once. Inconclusive results and toxic doses are left out.

System: L1210 leukemia ip in BDF1 mice, survival T/C
Assay: NCI In Vivo Anticancer Drug Screen. Data for tumor model L1210 Leukemia (intraperitoneal) in B6D2F1 (BDF1) mice
Settings: endpoint: mean survival time, higher = longer survival
Procedure, shortened: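 Transplantable tumor model; survival measured in treated vs vehicle control mice. Value = treated/control.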

[1] = dose: 100.0 mg/kg/injection, schedule: Q01DX009 (ip), vehicle: saline
[2] = dose: 200.0 mg/kg/injection, schedule: Q01DX009 (ip), vehicle: saline
[3] = dose: 100.0 mg/kg/injection, schedule: Q01DX001 (ip), vehicle: saline
[4] = dose: 50.0 mg/kg/injection, schedule: Q01DX009 (ip), vehicle: Klucel (hydroxypropylcellulose) (HPC)
[5] = dose: 100.0 mg/kg/injection, schedule: Q01DX009 (ip), vehicle: Klucel (hydroxypropylcellulose) (HPC)
[6] = dose: 200.0 mg/kg/injection, schedule: Q01DX009 (ip), vehicle: Klucel (hydroxypropylcellulose) (HPC)
[7] = dose: 400.0 mg/kg/injection, schedule: Q01DX009 (ip), vehicle: Klucel (hydroxypropylcellulose) (HPC)
[8] = dose: 100.0 mg/kg/injection, schedule: Q04DX003 (ip), vehicle: saline with Tween-80
[9] = dose: 200.0 mg/kg/injection, schedule: Q04DX003 (ip), vehicle: saline with Tween-80
[10] = dose: 400.0 mg/kg/injection, schedule: Q04DX003 (ip), vehicle: saline with Tween-80

CC1N=C(c2ccc(NC(=O)c3ccc(C(=O)Nc4ccc(C5=NC(C)C(C)N5)cc4)cc3)cc2)NC1C (stereo unspecified)
T/C (dose: 0.5 mg/kg/injection, schedule: Q01DX015 (ip), vehicle: water): 104 % of control
T/C (dose: 0.75 mg/kg/injection, schedule: Q01DX001 (ip), vehicle: water): 101 % of control
T/C (dose: 1.0 mg/kg/injection, schedule: Q01DX015 (ip), vehicle: water): 110 % of control
T/C (dose: 1.5 mg/kg/injection, schedule: Q01DX001 (ip), vehicle: water): 98 % of control
T/C (dose: 2.0 mg/kg/injection, schedule: Q01DX001 (ip), vehicle: water): 106 % of control
T/C (dose: 3.0 mg/kg/injection, schedule: Q01DX001 (ip), vehicle: water): 103 % of control
T/C (dose: 3.0 mg/kg/injection, schedule: Q01DX015 (ip), vehicle: water): 189 % of control
T/C (dose: 4.0 mg/kg/injection, schedule: Q01DX015 (ip), vehicle: water): 222 % of control

c1ccc2cc3cc4cc5ccccc5cc4cc3cc2c1
T/C (dose: 50.0 mg/kg/injection, schedule: Q01DX009 (ip), vehicle: saline): 97 % of control
T/C [1]: 101 % of control
T/C [2]: 101 % of control

Nc1cccc(C(=O)NCc2cccnc2)c1
T/C (dose: 100.0 mg/kg/injection, schedule: Q04DX002 (ip), vehicle: saline): 110 % of control
T/C (dose: 200.0 mg/kg/injection, schedule: Q04DX002 (ip), vehicle: saline): 107 % of control
T/C (dose: 400.0 mg/kg/injection, schedule: Q04DX002 (ip), vehicle: saline): 104 % of control

COC(=O)c1ccccc1NCCO
T/C [3]: 101 % of control
T/C (dose: 200.0 mg/kg/injection, schedule: Q01DX001 (ip), vehicle: saline): 107 % of control
T/C (dose: 400.0 mg/kg/injection, schedule: Q01DX001 (ip), vehicle: saline): 101 % of control

NCC(=O)NC1(C(=O)O)C2CC3CC(C2)CC1C3 (stereo unspecified)
T/C (dose: 25.0 mg/kg/injection, schedule: Q01DX009 (ip), vehicle: Klucel (hydroxypropylcellulose) (HPC)): 96 % of control
T/C [4]: 94 % of control
T/C [5]: 94 % of control and 96 % of control
T/C [6]: 103 % of control
T/C [7]: 103 % of control

CCOC(=O)c1ccc(NC(=O)Nc2ccc(Cl)cc2[N+](=O)[O-])cc1
T/C [5]: 95 % of control and 92 % of control
T/C [6]: 92 % of control
T/C [7]: 88 % of control and 92 % of control

CC1(C)N=C(N)N=C(N)N1c1cccc(OCCCC#N)c1
T/C [3]: 101 % of control

O=C1OCCO1
T/C (dose: 100.0 mg/kg/injection, schedule: Q04DX003 (ip), vehicle: saline sonified): 95 % of control
T/C (dose: 200.0 mg/kg/injection, schedule: Q04DX003 (ip), vehicle: saline sonified): 101 % of control
T/C (dose: 400.0 mg/kg/injection, schedule: Q04DX003 (ip), vehicle: saline sonified): 101 % of control

O=C(c1ccsc1)C(O)c1ccccc1 (stereo unspecified)
T/C (dose: 100.0 mg/kg/injection, schedule: Q01DX001 (ip), vehicle: carboxymethylcellulose (CMC)): 97 % of control
T/C (dose: 200.0 mg/kg/injection, schedule: Q01DX001 (ip), vehicle: carboxymethylcellulose (CMC)): 87 % of control
T/C (dose: 400.0 mg/kg/injection, schedule: Q01DX001 (ip), vehicle: carboxymethylcellulose (CMC)): 103 % of control

Cc1ccc(S(=O)(=O)Nc2ccccc2N=Cc2ccc([N+](=O)[O-])cc2[N+](=O)[O-])cc1
T/C (dose: 75.0 mg/kg/injection, schedule: Q01DX001 (ip), vehicle: carboxymethylcellulose (CMC)): 97 % of control
T/C (dose: 150.0 mg/kg/injection, schedule: Q01DX001 (ip), vehicle: carboxymethylcellulose (CMC)): 104 % of control
T/C (dose: 300.0 mg/kg/injection, schedule: Q01DX001 (ip), vehicle: carboxymethylcellulose (CMC)): 92 % of control

CC(O)(C(N)=O)c1cc(Cl)ccc1Cl (stereo unspecified)
T/C (dose: 100.0 mg/kg/injection, schedule: Q01DX009 (ip), vehicle: water): 94 % of control
T/C (dose: 100.0 mg/kg/injection, schedule: Q04DX003 (ip), vehicle: water): 90 % of control
T/C (dose: 200.0 mg/kg/injection, schedule: Q01DX009 (ip), vehicle: water): 96 % of control
T/C (dose: 200.0 mg/kg/injection, schedule: Q04DX003 (ip), vehicle: water): 95 % of control
T/C (dose: 400.0 mg/kg/injection, schedule: Q01DX009 (ip), vehicle: water): 107 % of control
T/C (dose: 400.0 mg/kg/injection, schedule: Q04DX003 (ip), vehicle: water): 96 % of control

CSc1nnc(SC)s1
T/C [8]: 104 % of control
T/C [9]: 93 % of control
T/C [10]: 93 % of control

O=c1c2ccccc2nc(-c2ccccc2)n1/N=C/c1cccnc1
T/C [5]: 90 % of control
T/C [6]: 98 % of control
T/C [7]: 104 % of control

Cc1cccc(C(O)C(=O)O)c1 (stereo unspecified)
T/C (dose: 75.0 mg/kg/injection, schedule: Q01DX001 (ip), vehicle: acetone): 94 % of control
T/C (dose: 150.0 mg/kg/injection, schedule: Q01DX001 (ip), vehicle: acetone): 92 % of control

Nc1ccn(C2OC(CO)C(O)C2O)c(=NC(CO)C(=O)O)n1 (stereo unspecified)
T/C (dose: 100.0 mg/kg/injection, schedule: Q01DX005 (ip), vehicle: saline): 117 % of control
T/C (dose: 200.0 mg/kg/injection, schedule: Q01DX005 (ip), vehicle: saline): 120 % of control

CC(C)(C)Sc1cc(C#N)ccn1
T/C (dose: 50.0 mg/kg/injection, schedule: Q04DX003 (ip), vehicle: other): 100 % of control and 92 % of control
T/C (dose: 100.0 mg/kg/injection, schedule: Q04DX002 (ip), vehicle: other): 103 % of control and 109 % of control
T/C (dose: 200.0 mg/kg/injection, schedule: Q04DX002 (ip), vehicle: other): 98 % of control and 102 % of control
T/C (dose: 400.0 mg/kg/injection, schedule: Q04DX002 (ip), vehicle: other): 103 % of control and 106 % of control

CCCCCCCCC(=O)N(C(C)C)C(C)C
T/C (dose: 100.0 mg/kg/injection, schedule: Q01DX009 (ip), vehicle: carboxymethylcellulose (CMC)): 93 % of control and 102 % of control
T/C (dose: 100.0 mg/kg/injection, schedule: Q04DX002 (ip), vehicle: carboxymethylcellulose (CMC)): 98 % of control and 101 % of control
T/C (dose: 200.0 mg/kg/injection, schedule: Q01DX009 (ip), vehicle: carboxymethylcellulose (CMC)): 93 % of control and 96 % of control
T/C (dose: 200.0 mg/kg/injection, schedule: Q04DX002 (ip), vehicle: carboxymethylcellulose (CMC)): 95 % of control and 92 % of control
T/C (dose: 400.0 mg/kg/injection, schedule: Q01DX009 (ip), vehicle: carboxymethylcellulose (CMC)): 92 % of control
T/C (dose: 400.0 mg/kg/injection, schedule: Q04DX002 (ip), vehicle: carboxymethylcellulose (CMC)): 87 % of control and 92 % of control

CC1(C)NC(=O)N(CCCl)C1=O
T/C (dose: 50.0 mg/kg/injection, schedule: Q04DX003 (ip), vehicle: saline): 97 % of control
T/C [1]: 96 % of control
T/C (dose: 100.0 mg/kg/injection, schedule: Q04DX003 (ip), vehicle: saline): 92 % of control
T/C [2]: 96 % of control
T/C (dose: 200.0 mg/kg/injection, schedule: Q04DX003 (ip), vehicle: saline): 97 % of control
T/C (dose: 400.0 mg/kg/injection, schedule: Q01DX009 (ip), vehicle: saline): 98 % of control
T/C (dose: 400.0 mg/kg/injection, schedule: Q04DX003 (ip), vehicle: saline): 103 % of control

COc1cc2c(cc1[N+](=O)[O-])OCO2
T/C [8]: 104 % of control
T/C [9]: 97 % of control
T/C [10]: 98 % of control

O=[N+]([O-])c1cccnc1Cl
T/C [4]: 107 % of control
T/C [5]: 95 % of control
T/C (dose: 100.0 mg/kg/injection, schedule: Q04DX003 (ip), vehicle: Klucel (hydroxypropylcellulose) (HPC)): 92 % of control
T/C [6]: 95 % of control
T/C (dose: 200.0 mg/kg/injection, schedule: Q04DX003 (ip), vehicle: Klucel (hydroxypropylcellulose) (HPC)): 91 % of control

O=C(Cc1ccccn1)NCCc1ccccc1
T/C (dose: 75.0 mg/kg/injection, schedule: Q01DX009 (ip), vehicle: saline): 93 % of control
T/C (dose: 75.0 mg/kg/injection, schedule: Q04DX003 (ip), vehicle: saline): 108 % of control
T/C (dose: 150.0 mg/kg/injection, schedule: Q01DX009 (ip), vehicle: saline): 94 % of control
T/C (dose: 150.0 mg/kg/injection, schedule: Q04DX003 (ip), vehicle: saline): 108 % of control
T/C (dose: 300.0 mg/kg/injection, schedule: Q04DX003 (ip), vehicle: saline): 90 % of control
